Our source for the inhibition and melting point values is patent US10308643B2, “Heterocyclic compound” (Takeda Pharmaceutical Company Limited, priority 2015, dated 2019).

A word on the melting point: it is the temperature, or range, at which the solid turns liquid.

Each structure is given as a SMILES string.

One data set addresses T1, HDAC9 enzyme (Homo sapiens, UniProt Q9UKV0).
T1 construct: transducing full length HDAC9 gene into Sf-9 insect cells; made in house; host or cells: Sf-9 insect cells
The data set can be described thus: HDAC9 Enzyme Inhibitory Assay (HDAC-Glo class IIa). The class given is biochemical. The conditions noted are these: 1 μM test compound; wells without enzyme = 100% inhibition; read-out: HDAC9 inhibitory rate (%) (1 μM). Summed up:
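Full-length human HDAC9 from Sf-9 cells, Ni-NTA purified, preincubated with compound for 60 min at room temperature in Tris-HCl pH 7.5 buffer (MgCl2, KCl, NaCl, glutathione, Tween-20). HDAC-Glo class IIa substrate-developer added; luminescence read after 20 min, with no-enzyme wells defining 100% inhibition.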

The target in another data set is T2, HDAC1 enzyme (Homo sapiens, UniProt Q13547).
T2 construct: transducing full length HDAC1 and HDAC6 genes into Sf-9 insect cells; GST; purchased SignalChem; host or cells: Sf-9 insect cells
The data set can be described thus: HDAC1/6 Enzyme Inhibitory Assay (HDAC-Glo I/II Assay kit), HDAC1. The conditions noted are these: 1 μM test compound; wells without enzyme = 100% inhibition; read-out: HDAC1 inhibitory rate (%) (1 μM). It is filed as biochemical. An outline of the steps:
(§1)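 Luminescence readout (HDAC-Glo I/II) after 20 min RT reaction of GST-purified full-length HDAC1 or HDAC6 (Sf-9 expressed) with substrate-developer; enzyme and compound preincubated 60 min RT; buffer 24 mM Tris-HCl pH 7.5, 0.6 mM glutathione, 0.01% Tween-20; no-enzyme wells = 100% inhibition.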

In the next data set the target is T3, HDAC6 enzyme (Homo sapiens, UniProt Q9UBN7).
T3 construct: transducing full length HDAC1 and HDAC6 genes into Sf-9 insect cells; GST; purchased SignalChem; host or cells: Sf-9 insect cells
T3 sequence (Q9UBN7 1-1215): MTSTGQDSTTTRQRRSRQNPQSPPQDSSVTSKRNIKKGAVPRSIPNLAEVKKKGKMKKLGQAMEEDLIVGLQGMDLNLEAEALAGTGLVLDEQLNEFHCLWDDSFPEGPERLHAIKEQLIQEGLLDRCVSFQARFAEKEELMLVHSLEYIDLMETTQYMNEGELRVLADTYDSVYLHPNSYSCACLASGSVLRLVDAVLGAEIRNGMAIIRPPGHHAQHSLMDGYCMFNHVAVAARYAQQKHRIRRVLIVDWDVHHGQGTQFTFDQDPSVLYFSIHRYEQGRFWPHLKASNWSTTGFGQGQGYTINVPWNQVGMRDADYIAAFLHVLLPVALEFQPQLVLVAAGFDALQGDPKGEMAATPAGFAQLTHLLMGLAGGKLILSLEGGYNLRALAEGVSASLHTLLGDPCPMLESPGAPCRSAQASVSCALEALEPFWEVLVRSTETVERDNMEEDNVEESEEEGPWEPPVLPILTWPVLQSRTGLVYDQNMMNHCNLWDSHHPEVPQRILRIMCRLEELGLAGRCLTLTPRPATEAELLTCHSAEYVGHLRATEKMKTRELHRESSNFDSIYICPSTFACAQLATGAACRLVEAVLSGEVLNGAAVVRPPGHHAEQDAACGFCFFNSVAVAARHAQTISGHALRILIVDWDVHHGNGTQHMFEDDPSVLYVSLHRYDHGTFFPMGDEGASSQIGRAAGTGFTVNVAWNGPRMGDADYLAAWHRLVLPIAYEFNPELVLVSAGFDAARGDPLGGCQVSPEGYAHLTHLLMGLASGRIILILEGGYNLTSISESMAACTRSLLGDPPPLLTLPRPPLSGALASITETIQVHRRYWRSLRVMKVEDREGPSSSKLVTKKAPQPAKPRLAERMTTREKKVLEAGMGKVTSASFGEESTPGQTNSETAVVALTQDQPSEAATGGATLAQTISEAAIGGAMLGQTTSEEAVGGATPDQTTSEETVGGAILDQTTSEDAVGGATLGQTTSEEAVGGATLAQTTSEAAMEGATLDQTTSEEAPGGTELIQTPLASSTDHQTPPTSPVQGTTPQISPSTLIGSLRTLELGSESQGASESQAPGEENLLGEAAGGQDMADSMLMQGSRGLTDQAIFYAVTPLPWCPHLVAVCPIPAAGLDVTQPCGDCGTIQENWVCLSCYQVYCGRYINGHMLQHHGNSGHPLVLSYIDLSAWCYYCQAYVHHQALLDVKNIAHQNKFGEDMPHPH
The data set can be described thus: HDAC1/6 Enzyme Inhibitory Assay (HDAC-Glo I/II Assay kit), HDAC6. It is filed as biochemical. The conditions noted are these: 1 μM test compound; wells without enzyme = 100% inhibition; read-out: HDAC6 inhibitory rate (%) (1 μM). An outline of the steps: as §1

T2 sequence (Q13547 whole entry): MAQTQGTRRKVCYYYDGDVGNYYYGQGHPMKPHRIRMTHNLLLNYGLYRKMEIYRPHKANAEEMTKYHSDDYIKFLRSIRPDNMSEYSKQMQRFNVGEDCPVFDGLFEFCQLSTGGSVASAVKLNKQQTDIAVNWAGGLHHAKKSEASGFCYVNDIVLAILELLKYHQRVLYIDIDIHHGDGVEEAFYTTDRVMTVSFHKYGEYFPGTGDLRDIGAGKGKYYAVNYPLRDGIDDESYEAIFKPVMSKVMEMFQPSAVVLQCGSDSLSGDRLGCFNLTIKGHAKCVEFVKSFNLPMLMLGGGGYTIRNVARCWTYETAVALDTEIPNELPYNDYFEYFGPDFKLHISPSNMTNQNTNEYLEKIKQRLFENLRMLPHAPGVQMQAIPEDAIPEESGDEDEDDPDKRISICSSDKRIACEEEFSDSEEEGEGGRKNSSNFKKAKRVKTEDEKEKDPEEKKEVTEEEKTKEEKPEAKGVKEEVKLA
T1 sequence (Q9UKV0 whole entry, species assumed): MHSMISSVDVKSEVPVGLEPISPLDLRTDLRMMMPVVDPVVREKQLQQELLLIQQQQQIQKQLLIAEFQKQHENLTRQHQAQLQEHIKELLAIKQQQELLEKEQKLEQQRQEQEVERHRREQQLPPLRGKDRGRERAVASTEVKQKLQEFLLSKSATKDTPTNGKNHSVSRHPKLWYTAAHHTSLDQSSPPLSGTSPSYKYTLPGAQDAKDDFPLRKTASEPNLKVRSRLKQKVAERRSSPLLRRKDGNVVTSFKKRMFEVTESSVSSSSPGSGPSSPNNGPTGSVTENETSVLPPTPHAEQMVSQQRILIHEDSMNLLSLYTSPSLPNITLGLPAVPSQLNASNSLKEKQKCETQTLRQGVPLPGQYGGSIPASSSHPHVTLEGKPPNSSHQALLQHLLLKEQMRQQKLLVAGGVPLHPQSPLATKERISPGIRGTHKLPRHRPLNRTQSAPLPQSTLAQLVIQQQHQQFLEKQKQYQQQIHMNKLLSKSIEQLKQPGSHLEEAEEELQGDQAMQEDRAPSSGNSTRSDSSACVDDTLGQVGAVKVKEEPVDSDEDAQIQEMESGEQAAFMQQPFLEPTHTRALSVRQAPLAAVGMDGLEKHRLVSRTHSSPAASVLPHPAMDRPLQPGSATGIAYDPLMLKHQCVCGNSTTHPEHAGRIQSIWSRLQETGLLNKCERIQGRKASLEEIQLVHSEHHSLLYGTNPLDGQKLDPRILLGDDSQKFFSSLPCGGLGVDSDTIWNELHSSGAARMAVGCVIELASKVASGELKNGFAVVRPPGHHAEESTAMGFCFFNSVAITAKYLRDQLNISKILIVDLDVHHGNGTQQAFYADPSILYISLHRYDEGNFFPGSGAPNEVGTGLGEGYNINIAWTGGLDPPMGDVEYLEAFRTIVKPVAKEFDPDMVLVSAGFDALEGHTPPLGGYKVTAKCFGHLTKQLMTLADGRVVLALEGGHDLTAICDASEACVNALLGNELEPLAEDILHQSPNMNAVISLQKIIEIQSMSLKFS

On to `O=C(N[C@@H]1CCCC[C@H]1N1Cc2ccc(-c3noc(C(F)(F)F)n3)cc2C1=O)[C@@H]1CCCO1` [Example 90, (2S)-N-((1R,2R)-2-(1-oxo-6-(5-(trifluoromethyl)-1,2,4-oxadiazol-3-yl)-1,3-dihydro-2H-isoindol-2-yl)cyclohexyl)tetrahydrofuran-2-carboxamide], for which the melting point is 132 °C. Further, the inhibition at 1 µM on HDAC9 enzyme is 37%. For the same compound, the inhibition at 1 µM at HDAC1 enzyme is 5%. The inhibition at 1 µM at HDAC6 enzyme amounted to 97%.

With `O=C(N[C@H]1CCOC[C@@H]1N1Cc2ccc(-c3noc(C(F)(F)F)n3)cc2C1=O)[C@@H]1CCOC1` [Example 209, (3R)-N-((3R,4S)-3-(1-oxo-6-(5-(trifluoromethyl)-1,2,4-oxadiazol-3-yl)-1,3-dihydro-2H-isoindol-2-yl)tetrahydro-2H-pyran-4-yl)tetrahydrofuran-3-carboxamide], the inhibition at 1 µM at HDAC9 enzyme was 51%; at HDAC1 enzyme, 13%; on HDAC6 enzyme it was 48%.

Regarding `O=C(N[C@H]1CCOC[C@@H]1N1Cc2ccc(-c3noc(C(F)(F)F)n3)cc2C1=O)[C@H]1CCOC1` [Example 210, (3S)-N-((3R,4S)-3-(1-oxo-6-(5-(trifluoromethyl)-1,2,4-oxadiazol-3-yl)-1,3-dihydro-2H-isoindol-2-yl)tetrahydro-2H-pyran-4-yl)tetrahydrofuran-3-carboxamide], the inhibition at 1 µM at HDAC9 enzyme worked out at 56%; on HDAC1 enzyme, 10%; at HDAC6 enzyme it was 55%.

Regarding `O=C(N[C@H]1CCCC[C@@H]1N1Cc2ccc(-c3noc(C(F)(F)F)n3)cc2C1=O)[C@@H]1CCCO1` [Example 217, (2S)-N-((1S,2S)-2-(1-oxo-6-(5-(trifluoromethyl)-1,2,4-oxadiazol-3-yl)-1,3-dihydro-2H-isoindol-2-yl)cyclohexyl)tetrahydrofuran-2-carboxamide], the inhibition at 1 µM was 53% at HDAC9 enzyme, 21% on HDAC1 enzyme and 82% on HDAC6 enzyme.

On to `O=C(N[C@H]1CCCC[C@@H]1N1Cc2ccc(-c3noc(C(F)(F)F)n3)cc2C1=O)[C@H]1CCCO1` [Example 218, (2R)-N-((1S,2S)-2-(1-oxo-6-(5-(trifluoromethyl)-1,2,4-oxadiazol-3-yl)-1,3-dihydro-2H-isoindol-2-yl)cyclohexyl)tetrahydrofuran-2-carboxamide], for which the inhibition at 1 µM at HDAC9 enzyme worked out at 29%; on HDAC1 enzyme, 5%; on HDAC6 enzyme, 44%.

As to `CC(C)(O)C(=O)N[C@H]1CCCC[C@@H]1N1Cc2ccc(-c3noc(C(F)(F)F)n3)cc2C1=O` [Example 219, 2-hydroxy-2-methyl-N-((1S,2S)-2-(1-oxo-6-(5-(trifluoromethyl)-1,2,4-oxadiazol-3-yl)-1,3-dihydro-2H-isoindol-2-yl)cyclohexyl)propanamide], the inhibition at 1 µM at HDAC9 enzyme worked out at 50%; at HDAC1 enzyme, 5%; on HDAC6 enzyme, 40%.

Regarding `O=C(N[C@H]1COCC[C@@H]1N1Cc2ccc(-c3noc(C(F)(F)F)n3)cc2C1=O)[C@@H]1CC1(F)F` [Example 220, (1S)-2,2-difluoro-N-((3R,4S)-4-(1-oxo-6-(5-(trifluoromethyl)-1,2,4-oxadiazol-3-yl)-1,3-dihydro-2H-isoindol-2-yl)tetrahydro-2H-pyran-3-yl)cyclopropanecarboxamide], the results for the inhibition at 1 µM at HDAC9 enzyme, on HDAC1 enzyme and at HDAC6 enzyme were 65%, 23% and 84%, respectively.

Consider `O=C(N[C@H]1COCC[C@@H]1N1Cc2ccc(-c3noc(C(F)(F)F)n3)cc2C1=O)[C@H]1CC1(F)F` [Example 221, (1R)-2,2-difluoro-N-((3R,4S)-4-(1-oxo-6-(5-(trifluoromethyl)-1,2,4-oxadiazol-3-yl)-1,3-dihydro-2H-isoindol-2-yl)tetrahydro-2H-pyran-3-yl)cyclopropanecarboxamide], for which the inhibition at 1 µM came to 86% at HDAC9 enzyme, 34% at HDAC1 enzyme and 90% at HDAC6 enzyme.
